PubChem BioAssay (NCI)
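Following 48 hours of exposure in 96-well plates, responses at five concentrations were used to interpolate endpoints linearly. GI50: concentration for 50% inhibition of growth. The concentration for full growth arrest is given as TGI.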

Columns and labels:
Test in all cases: NCI-60 cell line screen, 48 h
ACHN renal = test system: ACHN renal
CAKI-1 renal = test system: CAKI-1 renal
CCRF-CEM leukemia = test system: CCRF-CEM leukemia
DU-145 prostate = test system: DU-145 prostate
HCC-2998 colon = test system: HCC-2998 colon
HCT-116 colon = test system: HCT-116 colon
HCT-15 colon = test system: HCT-15 colon
HL-60(TB) leukemia = test system: HL-60(TB) leukemia
HOP-92 NSCLC = test system: HOP-92 NSCLC
HT29 colon = test system: HT29 colon
K-562 leukemia = test system: K-562 leukemia
M14 melanoma = test system: M14 melanoma
MALME-3M melanoma = test system: MALME-3M melanoma
MDA-MB-231 breast = test system: MDA-MB-231 breast
MDA-MB-435 = test system: MDA-MB-435
MOLT-4 leukemia = test system: MOLT-4 leukemia
NCI-H522 lung = test system: NCI-H522 lung
NCI/ADR-RES ovarian = test system: NCI/ADR-RES ovarian
OVCAR-3 ovarian = test system: OVCAR-3 ovarian
OVCAR-5 ovarian = test system: OVCAR-5 ovarian
PC-3 prostate = test system: PC-3 prostate
SF-295 CNS = test system: SF-295 CNS
SF-539 CNS = test system: SF-539 CNS
SK-MEL-2 melanoma = test system: SK-MEL-2 melanoma
SK-MEL-28 melanoma = test system: SK-MEL-28 melanoma
SK-MEL-5 melanoma = test system: SK-MEL-5 melanoma
SK-OV-3 ovarian = test system: SK-OV-3 ovarian
SN12C renal = test system: SN12C renal
SNB-19 CNS = test system: SNB-19 CNS
SNB-75 CNS = test system: SNB-75 CNS
SR leukemia = test system: SR leukemia
TK-10 renal = test system: TK-10 renal
UACC-62 melanoma = test system: UACC-62 melanoma
UO-31 renal = test system: UO-31 renal

## NCCCn1c2c(c3ccc([N+](=O)[O-])cc3c1=O)C(=O)c1cc(F)ccc1-2
ACHN renal
  GI50: 24.1 nM
  TGI: 142 nM
CAKI-1 renal
  GI50: 49.8 nM
  TGI: 266 nM
CCRF-CEM leukemia
  GI50: < 14.4 nM
  TGI: 779 nM
DU-145 prostate
  GI50: < 10.4 nM
  TGI: 451 nM
HCC-2998 colon
  GI50: 36.7 nM
  TGI: 233 nM
HCT-116 colon
  GI50: < 11.2 nM
  TGI: 134 nM
HCT-15 colon
  GI50: 59.5 nM
  TGI: 647 nM
HL-60(TB) leukemia
  GI50: < 16 nM
  TGI: 166 nM
HOP-92 NSCLC
  GI50: 90.2 nM
  TGI: 845 nM
HT29 colon
  GI50: < 15.3 nM
  TGI: 515 nM
K-562 leukemia
  GI50: < 20.5 nM
  TGI: 331 nM
M14 melanoma
  GI50: 29.7 nM
  TGI: 104 nM
MALME-3M melanoma
  GI50: 27.5 nM
  TGI: 161 nM
MDA-MB-231 breast
  GI50: 422 nM
  TGI: 1240 nM
MDA-MB-435
  GI50: 76.2 nM
  TGI: 923 nM
MOLT-4 leukemia
  GI50: < 10 nM
NCI-H522 lung
  GI50: < 10 nM
  TGI: 116 nM
NCI/ADR-RES ovarian
  GI50: 41.2 nM
  TGI: 1200 nM
OVCAR-3 ovarian
  GI50: 31 nM
  TGI: 152 nM
OVCAR-5 ovarian
  GI50: 122 nM
  TGI: 710 nM
PC-3 prostate
  GI50: 39.8 nM
  TGI: 1630 nM
SF-295 CNS
  GI50: 15.7 nM
  TGI: 142 nM
SF-539 CNS
  GI50: 28.8 nM
  TGI: 101 nM
SK-MEL-2 melanoma
  GI50: 326 nM
  TGI: 1050 nM
SK-MEL-28 melanoma
  GI50: 229 nM
  TGI: 1540 nM
SK-MEL-5 melanoma
  GI50: 60.3 nM
  TGI: 199 nM
SK-OV-3 ovarian
  GI50: 13.9 nM
  TGI: 349 nM
SN12C renal
  GI50: 43.9 nM
  TGI: 805 nM
SNB-19 CNS
  GI50: 58.9 nM
  TGI: 1520 nM
SNB-75 CNS
  GI50: 23 nM
  TGI: 268 nM
SR leukemia
  GI50: < 10 nM
  TGI: 20.5 nM
TK-10 renal
  GI50: 372 nM
  TGI: 2700 nM
UACC-62 melanoma
  GI50: 36 nM
  TGI: 165 nM
UO-31 renal
  GI50: 32.4 nM
  TGI: 190 nM
